The subject of data set [1] is liver cancer. Put plainly: Liver cancer development in mice fed high-fat diets and given antibiotic cocktail, with oral deoxycholic acid. The data set is classed as in vivo. The conditions noted are these: 40 μg/g body weight orally three times a week, high-fat diet + antibiotic cocktail. How it is done:
From the 13th week after the start of the raising, the antibiotic cocktail was administered to mice fed high-fat diets, which were then further raised. To these mice, 40 μg/g body weight of deoxycholic acid (DCA) or only a vehicle as a control was orally administered three times a week (FIG. 5A). […] The cancer was rarely developed in the control mouse group given only the vehicle, and even if the cancer was developed, its tumor size was small. On the other hand, the deoxycholic acid administration group had multiple cancer (25 or more tumors per individual), and also, its size was large.

The next data set has as its system gut microbiota. Nature of the data set: Gut microbiota analysis of feces by PCR of 16S rRNA gene. It is filed as in vivo, mice. How it is done: In this Example, in order to search for an intestinal bacterium related to cancer development, how the gut microbiota was atlered was analyzed (FIG. 4). In the experimental schedule shown in FIG. 3A, 3 groups were used: a group fed normal diets, a group fed high-fat diets, and a group fed high-fat diets and also given vancomycin. At the 30th week after the start of the raising, their feces were recovered, and the gut microbiota was analyzed.
The gut microbiota was identified by PCR analysis (Non Patent Literatures 11 and 12). Specifically, DNA was extracted from the feces and purified. The gene encoding 16S rRNA in many types of bacteria was amplified by PCR using universal primers. The V1-V4 hypervariable regions were further amplified, followed by identification.

The next data set has as its system intestinal bacteria. Put plainly: Level of gene encoding intestinal bacterial 16S rRNA after antibiotic administration. It is filed as in vivo. The conditions noted are these: 17 weeks after antibiotic administration, 30 weeks after birth; high-fat diet; in drinking water; 3 mice per group. As to the method:
DMBA was applied to wild-type neonatal mice, followed by high-fat diet feeding. From 13 weeks old, an antibiotic cocktail (4Abx, antibiotic cocktail administration group) or vancomycin (VCM, vancomycin administration group) mixed with drinking water was administered to the mice. At the 30th week after the start of the raising, their livers were excised, and liver cancer development was analyzed. On the other hand, the raising of a control group was continued in the same way as the aforementioned raising up to the 13th week. The antibiotic cocktail contained ampicillin (1 g/l), neomycin (1 g/l), metronidazole (1 g/l), and vancomycin (500 mg/l). In the case of administering vancomycin alone, 500 mg/l vancomycin was administered.

Data set [2] concerns liver cancer. Nature of the data set: Liver cancer development in DMBA-treated mice fed high-fat diets, antibiotic given in drinking water. The data set is classed as in vivo. The conditions noted are these: high-fat diet, antibiotic in drinking water from 13 weeks old, dissected at the 30th week. The source says: An acetone solution containing 0.5% of the carcinogenic substance DMBA (7,12-dimethylberiz[a]anthracene) was applied once to the backs of wild-type (C57BL/6) neonatal mice. The neonatal mice were raised together with their mother mouse by feeding with normal diets (ND) or high-fat diet (HFD) until 4 weeks old. The high-fat diets used were D12492 (Rodent Diet with 60% kcal % Fat; Research Diets, Inc., USA). The neonatal mice were weaned at 4 weeks old and subsequently raised with normal diets or high-fat diet. At 30 weeks old, their livers and lungs were excised, and the presence or absence of cancer development was analyzed. The average body weight of the mice at the time of dissection was 33 g for the mice fed normal diets and 51 g for the mice fed high-fat diets. The mice fed high-fat diets had approximately 1.5 times the body weights of the mice fed normal diets.
DMBA was applied to wild-type neonatal mice, followed by high-fat diet feeding. From 13 weeks old, an antibiotic cocktail (4Abx, antibiotic cocktail administration group) or vancomycin (VCM, vancomycin administration group) mixed with drinking water was administered to the mice. At the 30th week after the start of the raising, their livers were excised, and liver cancer development was analyzed. […]
The mice of each group were dissected at the 30th week, and liver cancer development was analyzed (FIGS. 3C and 3D).

SMILES strings stand for the structures. Some results are limits rather than exact numbers.

For `C[C@H](CCC(=O)O)[C@H]1CC[C@H]2[C@@H]3CC[C@@H]4C[C@H](O)CC[C@]4(C)[C@H]3C[C@H](O)[C@]12C` [deoxycholic acid], in the data set on liver cancer [1] (n=3), the liver tumor size entry is reported as “large” and the “tumor number per individual (liver)” value is no less than 25 tumors per individual. In addition, the liver tumor development entry in the data set on liver cancer [1] (vs vehicle) is “developed a large number of liver tumors”.

As for `CN[C@H](CC(C)C)C(=O)N[C@H]1C(=O)N[C@@H](CC(N)=O)C(=O)N[C@H]2C(=O)N[C@H]3C(=O)N[C@H](C(=O)N[C@H](C(=O)O)c4cc(O)cc(O)c4-c4cc3ccc4O)[C@H](O)c3ccc(c(Cl)c3)Oc3cc2cc(c3O[C@@H]2O[C@H](CO)[C@@H](O)[C@H](O)[C@H]2O[C@H]2C[C@](C)(N)[C@H](O)[C@H](C)O2)Oc2ccc(cc2Cl)[C@H]1O` [vancomycin], the “Gram-negative microbiota, proportion on average” value with gut microbiota (HFD+VCM group, average (FIG. 4)) is recorded as 99%. The “cluster XI of the genus Clostridium in gut microbiota” value in the data set on gut microbiota (feces at the 30th week, high-fat diets + vancomycin, n=2) came out at 0%. Moreover, the “amount of intestinal bacteria (level of gene encoding intestinal bacterial 16s rRNA)” value with intestinal bacteria is “decreased into a very small level”. Besides, the “liver cancer development (tumor number and size) as compared with the control” value in the data set with liver cancer [2] was “developed no liver cancer or developed liver cancer with a smaller tumor number and a smaller size”.

The values above are taken from US9670550B2, “Method for examination of carcinogenic risk” (JAPANESE FOUNDATION FOR CANCER RESEARCH, priority 2013, dated 2017).
